US20260293896A1, “PLANT GROWTH REGULATOR, PLANT GROWTH ACCELERATION METHOD, OR PLANT GROWTH-REGULATING PRODUCT” (KUREHA CORPORATION, priority 2022, published 2026)

Experiments:
Assay type in all cases: in vivo
rapeseed [1] = assay: Evaluation Example 3: Comparison of Elongated Plant Height of Rapeseed; conditions: petri dish, 5 mL, 24° C, 7th day after seeding, EGT 1 mM and/or Arg 1 mM
Experimental: The plant growth regulators of Example 6 and Comparative Examples 8 and 9 were prepared so as to attain the concentrations indicated in Table 3 below. EGT and Arg were commercially available products, and pure water was used as a solvent.
(§1) Into a 9 cm petri dish on which filter paper was spread, 5 mL of the plant growth regulator was added. Seven seeds of rapeseed were sown per one petri dish. In a thermostatic chamber set at room temperature of 24° C., the light period was 16 hours and the dark period was 8 hours. The light conditions were set using a fluorescent lamp (PLANT FLEC, 40 W LED fluorescent lamp for plant growth, electric bulb color, available from Nippon Medical and Chemical Instruments Co., Ltd.) such that the light intensity was 5000 lx in the central part under irradiation with the fluorescent lamp.
(§2) The plant height of the rapeseed on the 7th day after seeding was evaluated.

rapeseed [2] = assay: Evaluation Example 7: Comparison of Elongated Plant Height of Rapeseed; conditions: petri dish, 5 mL, 24° C, 7th day after seeding, EGT 0.5 mM and/or uracil 0.5 mM
Experimental: The plant growth regulators of Example 18 and Comparative Examples 24 and 25 were prepared so as to attain the concentrations indicated in Table 7 below. EGT and uracil were commercially available products, and pure water was used as a solvent.
as §1, with “Ten” for “Seven”
as §2

wheat [3] = assay: Evaluation Example 8: Comparison of Elongated Plant Height of Wheat; conditions: petri dish, 5 mL, 24° C, 7th day after seeding, EGT 0.5 mM and/or component (A) 0.5 mM
Experimental: The plant growth regulators of Examples 19 and 20 and Comparative Examples 26 to 28 were prepared so as to attain the concentrations indicated in Table 8 below. EGT, guanine and thymine were commercially available products, and pure water was used as a solvent.
as §1, with “Ten” for “Seven”, “wheat” for “rapeseed”
(§3) The plant height of the wheat on the 7th day after seeding was evaluated.

wheat [4] = assay: Evaluation Example 9: Comparison of Elongated Plant Height of Wheat; conditions: petri dish, 5 mL, 24° C, 7th day after seeding, EGT 0.5 mM and/or component (A) 0.5 mM
Experimental: The plant growth regulators of Examples 21 and 22 and Comparative Examples 29 to 31 were prepared so as to attain the concentrations indicated in Table 9 below. EGT, trehalose and inositol were commercially available products, and pure water was used as a solvent.
as §1, with “Ten” for “Seven”, “wheat” for “rapeseed”
as §3

tomato (Micro Tom) = assay: Evaluation Example 12: Comparison of Number of Flowers and Buds of Tomato; conditions: 50 mL on 32nd, 34th, 36th days, evaluated 83rd day after seeding, EGT 0.1 mM and/or component (A) 0.1 mM
Experimental: The plant growth regulators of Examples 32 and 33 and Comparative Examples 43 to 45 were prepared so as to attain the concentrations indicated in Table 12 below. EGT, Arg and Glu were commercially available products, and pure water was used as a solvent.
In a plastic pot having a diameter of 135 mm and a height of 110 mm, 1 kg of granular soil (Kumiai horticultural soil) was placed, and one individual tomato (Micro Tom) was sown per one pot.
The tomato was managed in a greenhouse set at room temperature of 25° C. Chemical treatment was started 5 weeks after seeding. More specifically, on the 32nd, 34th, and 36th days after seeding, 50 mL of the plant growth regulator was added.
On the 83rd day after seeding, the number of flowers and buds was evaluated.

wheat [5] = assay: Evaluation Example 15: Comparison of Elongated Plant Height of Wheat; conditions: petri dish, 5 mL, 24° C, 7th day after seeding, EGT 1 mM and/or carnitine 10 mM
Experimental: The plant growth regulators of Example 36 and Comparative Examples 50 and 51 were prepared so as to attain the concentrations indicated in Table 15 below. EGT and carnitine were commercially available products, and pure water was used as a solvent.
as §1, with “Ten” for “Seven”, “wheat” for “rapeseed”
as §3

wheat [6] = assay: Evaluation Example 16: Comparison of Elongated Plant Height of Wheat; conditions: petri dish, 5 mL, 24° C, 7th day after seeding, EGT 1 mM and/or trehalose 0.01 or 0.1 mM
Experimental: The plant growth regulators of Examples 37 and 38 and Comparative Examples 52 to 54 were prepared so as to attain the concentrations indicated in Table 16 below. EGT and trehalose were commercially available products, and pure water was used as a solvent.
as §1, with “Ten” for “Seven”, “wheat” for “rapeseed”
as §3

`C[N+](C)(C)[C@@H](Cc1c[nH]c(=S)[nH]1)C(=O)[O-]` [Comparative Example 8, L-(+)-ergothioneine] was tested, and the “Elongated plant height, ratio to untreated control” value (shortened to “Elongated plant height, ratio”) (rapeseed [1]) was 1.2.
With `N=C(N)NCCC[C@H](N)C(=O)O` [Comparative Example 9, L-arginine] the “Elongated plant height, ratio” value (rapeseed [1]) was 0.9.
With `C[N+](C)(C)[C@@H](Cc1c[nH]c(=S)[nH]1)C(=O)[O-]` [Comparative Example 24, L-(+)-ergothioneine] the “Elongated plant height, ratio” value (rapeseed [2]) was 1.1.
In the case of `O=c1cc[nH]c(=O)[nH]1` [Comparative Example 25, uracil], the “Elongated plant height, ratio” value (rapeseed [2]) is reported as 1.0.
In the case of `C[N+](C)(C)[C@@H](Cc1c[nH]c(=S)[nH]1)C(=O)[O-]` [Comparative Example 26, L-(+)-ergothioneine], the “Elongated plant height, ratio” value (wheat [3]) is reported as 1.1.
In the case of `C[N+](C)(C)[C@@H](Cc1c[nH]c(=S)[nH]1)C(=O)[O-]` [Comparative Example 29, L-(+)-ergothioneine], the “Elongated plant height, ratio” value (wheat [4]) is reported as 1.1.
With `C[N+](C)(C)[C@@H](Cc1c[nH]c(=S)[nH]1)C(=O)[O-]` [Comparative Example 43, L-(+)-ergothioneine] the “Total number of flowers and buds, ratio to untreated control” value (“Total number of flowers and buds, ratio” for short) (tomato (Micro Tom)) was 1.1.
With `C[N+](C)(C)[C@@H](Cc1c[nH]c(=S)[nH]1)C(=O)[O-]` [Comparative Example 50, L-(+)-ergothioneine] the “Elongated plant height, ratio” value (wheat [5]) was 1.1.
For `C[N+](C)(C)CC(O)CC(=O)[O-]` (stereo not drawn) [Comparative Example 51, carnitine], the “Elongated plant height, ratio” value (wheat [5]) was 1.0.
`C[N+](C)(C)[C@@H](Cc1c[nH]c(=S)[nH]1)C(=O)[O-]` [Comparative Example 52, L-(+)-ergothioneine] was tested, and the “Elongated plant height, ratio” value (wheat [6]) was 1.1.
`Nc1nc2nc[nH]c2c(=O)[nH]1` [compound 27, guanine] was tested, and the “Elongated plant height, ratio” value (wheat [3]) was 0.9.
`Cc1c[nH]c(=O)[nH]c1=O` [compound 28, thymine] was tested, and the “Elongated plant height, ratio” value (wheat [3]) was 0.9.
With `OC[C@H]1O[C@H](O[C@H]2O[C@H](CO)[C@@H](O)[C@H](O)[C@H]2O)[C@H](O)[C@@H](O)[C@@H]1O` [compound 30, trehalose] the “Elongated plant height, ratio” value (wheat [4]) was 1.0.
With `O[C@H]1[C@H](O)[C@@H](O)[C@H](O)[C@@H](O)[C@H]1O` [compound 31, inositol] the “Elongated plant height, ratio” value (wheat [4]) was 0.9.
For `N=C(N)NCCC[C@H](N)C(=O)O` [compound 44, L-arginine], the “Total number of flowers and buds, ratio” value (tomato (Micro Tom)) was 1.0.
With `N[C@@H](CCC(=O)O)C(=O)O` [compound 45, L-glutamic acid] the “Total number of flowers and buds, ratio” value (tomato (Micro Tom)) was 1.0.
In the case of `OC[C@H]1O[C@H](O[C@H]2O[C@H](CO)[C@@H](O)[C@H](O)[C@H]2O)[C@H](O)[C@@H](O)[C@@H]1O` [compound 53, trehalose], the “Elongated plant height, ratio” value (wheat [6]) is reported as 1.0.
With `OC[C@H]1O[C@H](O[C@H]2O[C@H](CO)[C@@H](O)[C@H](O)[C@H]2O)[C@H](O)[C@@H](O)[C@@H]1O` [compound 54, trehalose] the “Elongated plant height, ratio” value (wheat [6]) was 0.9.
